ChEMBL document CHEMBL2429768, “Eco-friendly synthesis and antimicrobial activities of substituted-5-(1H-indol-3-yl)methylene)-2,2-dimethyl-1,3-dioxane-4,6-dione derivatives” (2013)
In brackets after ≈: the same amount, converted by molar mass.

Experiments:
Assay type in all cases: functional
[1] = test system: Rhizoctonia solani; assay: Antifungal activity against Rhizoctonia solani at 500 ug/ml after 72 hrs by agar well diffusion method; conditions: read-out: DIZ
[2] = test system: Fusarium oxysporum; assay: Antifungal activity against Fusarium oxysporum at 200 ug/ml after 72 hrs by agar well diffusion method; conditions: read-out: DIZ
[3] = test system: Aspergillus niger; assay: Antifungal activity against Aspergillus niger at 300 ug/ml after 72 hrs by agar well diffusion method; conditions: read-out: DIZ
[4] = test system: Aspergillus flavus; assay: Antifungal activity against Aspergillus flavus at 500 ug/ml after 72 hrs by agar well diffusion method; conditions: read-out: DIZ
[5] = test system: Bacillus subtilis; assay: Antibacterial activity against Bacillus subtilis at 500 ug/ml after 24 hrs by agar well diffusion method; conditions: read-out: DIZ
[6] = test system: Staphylococcus aureus; assay: Antibacterial activity against Staphylococcus aureus ATCC 6538 after 24 hrs by agar well diffusion method; conditions: ATCC 6538, 24 h
[7] = test system: Rhizoctonia solani; assay: Antifungal activity against Rhizoctonia solani at 200 ug/ml after 72 hrs by agar well diffusion method; conditions: read-out: DIZ
[8] = test system: Klebsiella pneumoniae; assay: Antibacterial activity against Klebsiella pneumoniae after 24 hrs by agar well diffusion method
[9] = test system: Escherichia coli; assay: Antibacterial activity against Escherichia coli ATCC 8739 at 300 ug/ml after 24 hrs by agar well diffusion method; conditions: ATCC 8739, 24 h, read-out: DIZ
[10] = test system: Klebsiella pneumoniae; assay: Antibacterial activity against Klebsiella pneumoniae at 200 ug/ml after 24 hrs by agar well diffusion method; conditions: read-out: DIZ
[11] = test system: Aspergillus flavus; assay: Antifungal activity against Aspergillus flavus after 72 hrs by agar well diffusion method
[12] = test system: Staphylococcus aureus; assay: Antibacterial activity against Staphylococcus aureus ATCC 6538 at 100 ug/ml after 24 hrs by agar well diffusion method; conditions: ATCC 6538, 24 h, read-out: DIZ
[13] = test system: Staphylococcus aureus; assay: Antibacterial activity against Staphylococcus aureus ATCC 6538 at 50 ug/ml after 24 hrs by agar well diffusion method; conditions: ATCC 6538, 24 h, read-out: DIZ
[14] = test system: Aspergillus flavus; assay: Antifungal activity against Aspergillus flavus at 100 ug/ml after 72 hrs by agar well diffusion method; conditions: read-out: DIZ
[15] = test system: Staphylococcus aureus; assay: Antibacterial activity against Staphylococcus aureus ATCC 6538 at 200 ug/ml after 24 hrs by agar well diffusion method; conditions: ATCC 6538, 24 h, read-out: DIZ
[16] = test system: Escherichia coli; assay: Antibacterial activity against Escherichia coli ATCC 8739 at 100 ug/ml after 24 hrs by agar well diffusion method; conditions: ATCC 8739, 24 h, read-out: DIZ
[17] = test system: Aspergillus niger; assay: Antifungal activity against Aspergillus niger at 50 ug/ml after 72 hrs by agar well diffusion method; conditions: read-out: DIZ
[18] = test system: Fusarium oxysporum; assay: Antifungal activity against Fusarium oxysporum after 72 hrs by agar well diffusion method
[19] = test system: Klebsiella pneumoniae; assay: Antibacterial activity against Klebsiella pneumoniae at 50 ug/ml after 24 hrs by agar well diffusion method; conditions: read-out: DIZ
[20] = test system: Fusarium oxysporum; assay: Antifungal activity against Fusarium oxysporum at 50 ug/ml after 72 hrs by agar well diffusion method; conditions: read-out: DIZ
[21] = test system: Klebsiella pneumoniae; assay: Antibacterial activity against Klebsiella pneumoniae at 300 ug/ml after 24 hrs by agar well diffusion method; conditions: read-out: DIZ
[22] = test system: Aspergillus flavus; assay: Antifungal activity against Aspergillus flavus at 50 ug/ml after 72 hrs by agar well diffusion method; conditions: read-out: DIZ
[23] = test system: Escherichia coli; assay: Antibacterial activity against Escherichia coli ATCC 8739 at 500 ug/ml after 24 hrs by agar well diffusion method; conditions: ATCC 8739, 24 h, read-out: DIZ
[24] = test system: Bacillus subtilis; assay: Antibacterial activity against Bacillus subtilis at 50 ug/ml after 24 hrs by agar well diffusion method; conditions: read-out: DIZ
[25] = test system: Aspergillus flavus; assay: Antifungal activity against Aspergillus flavus at 300 ug/ml after 72 hrs by agar well diffusion method; conditions: read-out: DIZ
[26] = test system: Escherichia coli; assay: Antibacterial activity against Escherichia coli ATCC 8739 after 24 hrs by agar well diffusion method; conditions: ATCC 8739, 24 h
[27] = test system: Escherichia coli; assay: Antibacterial activity against Escherichia coli ATCC 8739 at 200 ug/ml after 24 hrs by agar well diffusion method; conditions: ATCC 8739, 24 h, read-out: DIZ
[28] = test system: Escherichia coli; assay: Antibacterial activity against Escherichia coli ATCC 8739 at 50 ug/ml after 24 hrs by agar well diffusion method; conditions: ATCC 8739, 24 h, read-out: DIZ
[29] = test system: Aspergillus flavus; assay: Antifungal activity against Aspergillus flavus at 200 ug/ml after 72 hrs by agar well diffusion method; conditions: read-out: DIZ
[30] = test system: Rhizoctonia solani; assay: Antifungal activity against Rhizoctonia solani at 100 ug/ml after 72 hrs by agar well diffusion method; conditions: read-out: DIZ
[31] = test system: Klebsiella pneumoniae; assay: Antibacterial activity against Klebsiella pneumoniae at 500 ug/ml after 24 hrs by agar well diffusion method; conditions: read-out: DIZ
[32] = test system: Staphylococcus aureus; assay: Antibacterial activity against Staphylococcus aureus ATCC 6538 at 500 ug/ml after 24 hrs by agar well diffusion method; conditions: ATCC 6538, 24 h, read-out: DIZ
[33] = test system: Bacillus subtilis; assay: Antibacterial activity against Bacillus subtilis at 100 ug/ml after 24 hrs by agar well diffusion method; conditions: read-out: DIZ
[34] = test system: Aspergillus niger; assay: Antifungal activity against Aspergillus niger at 200 ug/ml after 72 hrs by agar well diffusion method; conditions: read-out: DIZ
[35] = test system: Klebsiella pneumoniae; assay: Antibacterial activity against Klebsiella pneumoniae at 100 ug/ml after 24 hrs by agar well diffusion method; conditions: read-out: DIZ
[36] = test system: Fusarium oxysporum; assay: Antifungal activity against Fusarium oxysporum at 500 ug/ml after 72 hrs by agar well diffusion method; conditions: read-out: DIZ
[37] = test system: Bacillus subtilis; assay: Antibacterial activity against Bacillus subtilis at 300 ug/ml after 24 hrs by agar well diffusion method; conditions: read-out: DIZ
[38] = test system: Fusarium oxysporum; assay: Antifungal activity against Fusarium oxysporum at 300 ug/ml after 72 hrs by agar well diffusion method; conditions: read-out: DIZ
[39] = test system: Fusarium oxysporum; assay: Antifungal activity against Fusarium oxysporum at 100 ug/ml after 72 hrs by agar well diffusion method; conditions: read-out: DIZ
[40] = test system: Aspergillus niger; assay: Antifungal activity against Aspergillus niger at 500 ug/ml after 72 hrs by agar well diffusion method; conditions: read-out: DIZ
[41] = test system: Rhizoctonia solani; assay: Antifungal activity against Rhizoctonia solani at 50 ug/ml after 72 hrs by agar well diffusion method; conditions: read-out: DIZ
[42] = test system: Staphylococcus aureus; assay: Antibacterial activity against Staphylococcus aureus ATCC 6538 at 300 ug/ml after 24 hrs by agar well diffusion method; conditions: ATCC 6538, 24 h, read-out: DIZ
[43] = test system: Bacillus subtilis; assay: Antibacterial activity against Bacillus subtilis after 24 hrs by agar well diffusion method
[44] = test system: Rhizoctonia solani; assay: Antifungal activity against Rhizoctonia solani at 300 ug/ml after 72 hrs by agar well diffusion method; conditions: read-out: DIZ
[45] = test system: Aspergillus niger; assay: Antifungal activity against Aspergillus niger after 72 hrs by agar well diffusion method
[46] = test system: Rhizoctonia solani; assay: Antifungal activity against Rhizoctonia solani after 72 hrs by agar well diffusion method
[47] = test system: Aspergillus niger; assay: Antifungal activity against Aspergillus niger at 100 ug/ml after 72 hrs by agar well diffusion method; conditions: read-out: DIZ
[48] = test system: Bacillus subtilis; assay: Antibacterial activity against Bacillus subtilis at 200 ug/ml after 24 hrs by agar well diffusion method; conditions: read-out: DIZ

## CCn1cc(C=C2C(=O)OC(C)(C)OC2=O)c2ccccc21
[1]
  zone of inhibition at 500 µg/mL: 29 mm
[2]
  zone of inhibition at 200 µg/mL: 16 mm
[3]
  zone of inhibition at 300 µg/mL: 18 mm
[4]
  zone of inhibition at 500 µg/mL: 23 mm
[5]
  zone of inhibition at 500 µg/mL: 22 mm
[6]
  MIC: 25 µg/mL (≈ 83.5 µM)
[7]
  zone of inhibition at 200 µg/mL: 16 mm
[8]
  MIC: 15 µg/mL (≈ 50.1 µM)
[9]
  zone of inhibition at 300 µg/mL: 20 mm
[10]
  zone of inhibition at 200 µg/mL: 18 mm
[11]
  MIC: 40 µg/mL (≈ 134 µM)
[12]
  zone of inhibition at 100 µg/mL: 10 mm
[13]
  zone of inhibition at 50 µg/mL: 6 mm
[14]
  zone of inhibition at 100 µg/mL: 9 mm
[15]
  zone of inhibition at 200 µg/mL: 14 mm
[16]
  zone of inhibition at 100 µg/mL: 13 mm
[17]
  zone of inhibition at 50 µg/mL: 6 mm
[18]
  MIC: 35 µg/mL (≈ 117 µM)
[19]
  zone of inhibition at 50 µg/mL: 9 mm
[20]
  zone of inhibition at 50 µg/mL: 7 mm
[21]
  zone of inhibition at 300 µg/mL: 23 mm
[22]
  zone of inhibition at 50 µg/mL: 4 mm
[23]
  zone of inhibition at 500 µg/mL: 30 mm
[24]
  zone of inhibition at 50 µg/mL: 4 mm
[25]
  zone of inhibition at 300 µg/mL: 15 mm
[26]
  MIC: 15 µg/mL (≈ 50.1 µM)
[27]
  zone of inhibition at 200 µg/mL: 16 mm
[28]
  zone of inhibition at 50 µg/mL: 8 mm
[29]
  zone of inhibition at 200 µg/mL: 12 mm
[30]
  zone of inhibition at 100 µg/mL: 12 mm
[31]
  zone of inhibition at 500 µg/mL: 31 mm
[32]
  zone of inhibition at 500 µg/mL: 25 mm
[33]
  zone of inhibition at 100 µg/mL: 9 mm
[34]
  zone of inhibition at 200 µg/mL: 14 mm
[35]
  zone of inhibition at 100 µg/mL: 14 mm
[36]
  zone of inhibition at 500 µg/mL: 29 mm
[37]
  zone of inhibition at 300 µg/mL: 14 mm
[38]
  zone of inhibition at 300 µg/mL: 21 mm
[39]
  zone of inhibition at 100 µg/mL: 12 mm
[40]
  zone of inhibition at 500 µg/mL: 25 mm
[41]
  zone of inhibition at 50 µg/mL: 7 mm
[42]
  zone of inhibition at 300 µg/mL: 18 mm
[43]
  MIC: 30 µg/mL (≈ 100 µM)
[44]
  zone of inhibition at 300 µg/mL: 21 mm
[45]
  MIC: 40 µg/mL (≈ 134 µM)
[46]
  MIC: 35 µg/mL (≈ 117 µM)
[47]
  zone of inhibition at 100 µg/mL: 10 mm
[48]
  zone of inhibition at 200 µg/mL: 11 mm
